Earlier results as cited in patent US11554108B2, “Methods and compositions for treating cutaneous fungal infections” (Xeropedix, Inc., priority 2016, dated 2023).
In brackets after ≈: the same amount, converted by molar mass. Where two headings read alike, the source gives them in different places.

Legend:
[1] = target: transient receptor potential vanilloid 1 (TRPV1) cation channel (Homo sapiens, UniProt Q8NER1); settings: lowered from approximately 42° C.
[2] = tested on: tinea pedis
[3] = tested on: T. mentagrophytes
[4] = tested on: T. rubrum
[5] = not given; remark: listed apart in the source

Chain of transient receptor potential vanilloid 1 (TRPV1) cation channel (Q8NER1 whole entry): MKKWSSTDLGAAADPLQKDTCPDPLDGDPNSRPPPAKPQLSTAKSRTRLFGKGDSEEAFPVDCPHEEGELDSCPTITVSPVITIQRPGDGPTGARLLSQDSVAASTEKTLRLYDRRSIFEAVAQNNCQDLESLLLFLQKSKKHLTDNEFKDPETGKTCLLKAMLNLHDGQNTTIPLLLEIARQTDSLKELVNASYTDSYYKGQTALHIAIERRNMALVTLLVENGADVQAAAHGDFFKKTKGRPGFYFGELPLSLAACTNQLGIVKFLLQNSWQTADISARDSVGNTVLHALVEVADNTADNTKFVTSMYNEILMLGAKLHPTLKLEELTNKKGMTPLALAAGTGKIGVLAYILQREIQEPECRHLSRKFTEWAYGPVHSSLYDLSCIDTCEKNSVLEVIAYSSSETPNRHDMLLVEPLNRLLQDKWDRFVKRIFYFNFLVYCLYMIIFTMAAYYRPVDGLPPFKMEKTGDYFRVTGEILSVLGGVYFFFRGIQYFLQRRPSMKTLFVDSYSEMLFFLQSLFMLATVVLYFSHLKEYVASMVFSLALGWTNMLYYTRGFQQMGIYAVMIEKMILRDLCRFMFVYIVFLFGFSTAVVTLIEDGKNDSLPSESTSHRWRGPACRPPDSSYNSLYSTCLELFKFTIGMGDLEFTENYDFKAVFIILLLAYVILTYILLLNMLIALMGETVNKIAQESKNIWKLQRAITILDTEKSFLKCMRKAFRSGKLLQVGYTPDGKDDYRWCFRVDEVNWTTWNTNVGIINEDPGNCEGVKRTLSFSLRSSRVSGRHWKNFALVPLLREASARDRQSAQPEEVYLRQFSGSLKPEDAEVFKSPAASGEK

In the case of `CCO` [Ethanol], the “threshold temperature at which TRPV1 signals excessive heat” value [1] is listed as 34 °C.

In the case of `[Cl][Al]([Cl])[Cl]` [aluminum chloride], the “reduction of unpleasant symptoms of tinea pedis” value ([2]; 30% aluminum chloride solution) is given as “effective at reducing unpleasant symptoms”, the “resolution of the infection” value ([2]; 30% aluminum chloride solution) is given as “did not resolve the infection entirely” and the “inhibition of T. mentagrophytes in an in vitro MIC test” value ([3]; 10% aluminum chloride, equal to 100,000 μg/ml) is given as “no inhibition”. The “inhibition of T. mentagrophytes in an in vitro MIC test” value ([3]; 20% aluminum chloride, equal to 200,000 μg/ml) was “inhibited the fungus”.

For `CN(C/C=C/C#CC(C)(C)C)Cc1cccc2ccccc12` [terbinafine], the stratum corneum concentration (24 hours after a single application of 1% terbinafine cream) is given as 37 ng/cm^2, the “concentration of terbinafine in the stratum corneum” value (24 hours after application of 1% terbinafine cream, converted with 1 ng/cm^2=4 μg/ml) is given as “approximately 148 μg/ml” and the “minimum fungicidal concentration against T. rubrum” value [4] is given as 3 ng/mL (≈ 0.0103 µM). The “rate of absorption, maximum concentration, and half-life in the skin” value ([5]; ethanol gel compared to a standard cream formulation) was “improve” and the percutaneous terbinafine absorption ([5]; in vivo, ethanol solution compared to isopropyl myristate solution) was “enhanced”.

In the case of aluminum chlorohydrate, the “effectiveness against tinea pedis relative to aluminum chloride” value ([2]; in vivo) is given as “less effective than aluminum chloride”.
